# Data reported in the OligoGym collection.
# These antisense oligonucleotides have a phosphorothioate backbone; sugars and methylation of C are not fully specified.
# Molecular target: GNA12
# Conditions: ASO
# Note: test concentration or dose not given here.
row,Sequence,remaining target (mRNA or protein) (fraction of control)
1,GTGCGCTCAGGGCCGGGA,0.72
2,GCAGGATCTTCACCAGGC,0.93
3,TTTTCAGAATACTGCCAA,0.63
4,AAGTTGTCCAGGAAGTAC,0.44
5,CACATCCACCATCTTAAA,≥ 1
6,GAAGCGGACGTTCTCGGT,≥ 1
7,GGACCTGGTCGTACTCGC,0.42
8,TCAGGAACATCCCATGCT,0.79
9,ACAAGAACCCTTGAGCCC,0.74

# Molecular target: GNAS
# Conditions: ASO
row,Sequence,remaining target (mRNA or protein) (fraction of control)
1,TTTCTTTTATTTCATTTTAT,≥ 1
2,TGGTTGCCTTCTCACTGTCT,0.62
3,ATTTCATTTGTTTCTTTTAT,0.76
4,GGTTGCCTTCTCACTGTCTC,0.58
5,TTTGTTTGCTGCTGCTGTTT,0.96
6,AGTGAGAGGGAACTTTTGTG,0.41
7,TTGCCTTCTCACTGTCTCCA,0.56
8,ATGTTCTCAGTGTCCACAGC,0.58
9,ACTGAAAGTGAGAGGGAACT,≥ 1
10,ACACACGGCGGATGTTCTCA,0.42
11,TTGTTTGCTGCTGCTGTTTT,0.45
12,GCTGCTGCTGTTTTATTTAT,0.43
13,CTTTTATTTCATTTTATTTG,0.97
14,CATTTTATTTGTTTGCTGCT,0.65
15,TTTATTTCATTTGTTTCTTT,0.93
16,GTGAAATGAGGGTAGCAGTA,≥ 1
17,GGGTTTCGCAAAATCACTCG,0.61
18,GATGTTCTCAGTGTCCACAG,0.45
19,TTCATTTTATTTGTTTGCTG,0.79

row,Sequence,remaining target (mRNA or protein) (fraction of control)
1,TTCATTTGTTTCTTTTATTT,≥ 1
2,TGTTTGCTGCTGCTGTTTTA,0.96
3,TTTGCTGCTGCTGTTTTATT,0.66
4,TATTTATTTCATTTGTTTCT,≥ 1
5,ATTTGGAACATCTAAGCAAG,0.66
6,GTTTGCTGCTGCTGTTTTAT,0.53
7,CGCAGGTGAAATGAGGGTAG,0.35
8,TGTTCTCAGTGTCCACAGCG,0.39
9,TTCTTTTATTTCATTTTATT,≥ 1
10,TTTCATTTTATTTGTTTGCT,≥ 1
11,TTATTTCATTTTATTTGTTT,0.92
12,CACGGCGGATGTTCTCAGTG,0.44
13,AGCGCAGGTGAAATGAGGGT,≥ 1
14,GGGTTCCCTTCTTAGAGCAG,0.52
15,ACACGGCGGATGTTCTCAGT,0.39
16,GAATGATGTCACGGCAGTCG,0.39
17,ATATTTATTTCATTTGTTTC,0.61
18,GGTTCCCTTCTTAGAGCAGC,≥ 1
19,GCTGCTGTTTTATTTATTTT,0.75

row,Sequence,remaining target (mRNA or protein) (fraction of control)
1,TATTTGTTTGCTGCTGCTGT,≥ 1
2,ATTTGTTTGCTGCTGCTGTT,0.81
3,ATTTATTTCATTTGTTTCTT,≥ 1
4,CTGCTGCTGTTTTATTTATT,0.63
5,CAGGTGAAATGAGGGTAGCA,≥ 1
6,GGTTTCGCAAAATCACTCGG,0.41
7,TGCGCTGAATGATGTCACGG,0.41
8,TGCTGCTGTTTTATTTATTT,≥ 1
9,TGTTTCTTTTATTTCATTTT,≥ 1
10,GTGAGAGGGAACTTTTGTGG,0.72
11,GCGCTGAATGATGTCACGGC,0.38
12,TTGTTTCTTTTATTTCATTT,≥ 1
13,CTTTGGTTGCCTTCTCACTG,0.55
14,TATTTCATTTGTTTATTTTA,≥ 1
15,TTTGTTTCTTTTATTTCATT,0.83
16,TCATTTTATTTGTTTGCTGC,0.75
17,TTTCATTTGTTTCTTTTATT,≥ 1
18,TTTTACTGAAAGTGAGAGGG,0.9

# Molecular target: PDPK1
# Conditions: ASO
row,Sequence,remaining target (mRNA or protein) (fraction of control)
1,GCATATTCTCTGGAGGTT,≥ 1
2,CGATCTCAGCCGTGTAAA,0.13
3,AGCTGGCTGGTGGTCCTG,0.36
4,GGTCTCTTGCCTTAGGGA,0.37
